Read-outs that look alike come from different tables or passages of the source.
What was measured:
[1] = tested on: angiotensin II receptor; conditions: cited from earlier work; for angiotensin II antagonist activity: binding experiments, functional assays and in vivo tests, literature
[2] = molecular target: smooth muscle angiotensin II receptor; assay: Assay A: Angiotensin II Binding Activity; conditions: 50% displacement of specifically bound 125I-AII; rat uterine membranes; pH 7.5; 25° C., 60 min
Experimental: Compounds of the invention were tested for ability to bind to the smooth muscle angiotensin II receptor using a rat uterine membrane preparation. […] Rat uterine membranes were prepared from fresh tissue. All procedures were carried out at 4° C. Uteri were stripped of fat and homogenized in phosphate-buffered saline at pH 7.4 containing 5 mM EDTA. The homogenate was centrifuged at 1500×g for 20 min., and the supernatant was recentrifuged at 100,000×g for 60 min. The pellet was resuspended in buffer consisting of 2 mM EDTA and 50 mM Tris-HCl (pH 7.5) to a final protein concentration of 4 mg/ml. […] The reaction was initiated by the addition of membrane protein and the mixture was incubated at 25° C. for 60 min. The incubation was terminated with ice-cold 50 mM Tris-HCl (pH 7.5) and the mixture was filtered to separate membrane-bound labelled peptide from the free ligand. The incubation tube and filter were washed with ice-cold buffer. Filters were assayed for radioactivity in a Micromedic gamma counter. Nonspecific binding was defined as binding in the presence of 10 μM of unlabelled AII. Specific binding was calculated as total binding minus nonspecific binding. […] Binding data were analyzed by a nonlinear least-squares curve fitting program.

[3] = tested on: pressor response to AII; assay: Assay C: In Vivo Intragastric Pressor Assay Response for AII Antagonists; set-up: species or system rat (male Sprague-Dawley); conditions: 3 mg/kg (i.g.), AII 30 ng/kg i.v. bolus; for Duration: followed to 180 minutes; for inhibition in vivo at 3 mg/kg: Rattus norvegicus, po
Experimental: The catheters were tunneled subcutaneously to exit dorsally, posterior to the head and between the scapulae. The catheters were filled with heparin (1000 units/ml of saline). The rats were returned to their cage and allowed regular rat chow and water ad libitum. After full recovery from surgery (3-4 days), rats were placed in Lucite holders and the arterial line was connected to a pressure transducer. Arterial pressure was recorded on a Gould polygraph (mmHg). Angiotensin II was administered as a 30 ng/kg bolus via the venous catheter delivered in a 50 μl volume with a 0.2 ml saline flush. The pressor response in mm Hg was measured by the difference from pre-injection arterial pressure to the maximum pressure achieved. The AII injection was repeated every 10 minutes until three consecutive injections yielded responses within 4 mmHg of each other. These three responses were then averaged and represented the control response to AII. The test compound was suspended in 0.5% methylcellulose in water and was administered by gavage. The volume administered was 2 ml/kg body weight. The standard dose was 3 mg/kg. Angiotensin II bolus injections were given at 30, 45, 60, 75, 120, 150, and 180 minutes after gavage. The pressor response to AII was measured at each time point. The rats were then returned to their cage for future testing. A minimum of 3 days was allowed between tests. Percent inhibition was calculated for each time point following gavage by the following formula: [(Control Response-Response at time point)/Control Response]×100.

[4] = molecular target: T1, rabbit aortic rings (Oryctolagus cuniculus, UniProt P34976); assay: Assay B: In Vitro Vascular Smooth Muscle Response for AII; set-up: species or system rabbit (male New Zealand white); conditions: rabbit aorta rings, two rabbits per antagonist, antagonist 10^-5 M, 5 minutes, AII contraction, Schild
T1 construct: The thoracic aorta was removed, cleaned of adherent fat and connective tissue and then cut into 3-mm ring segments; from tissue; host or cells: rabbit thoracic aorta rings, endothelium removed
T1 sequence (P34976 1-359): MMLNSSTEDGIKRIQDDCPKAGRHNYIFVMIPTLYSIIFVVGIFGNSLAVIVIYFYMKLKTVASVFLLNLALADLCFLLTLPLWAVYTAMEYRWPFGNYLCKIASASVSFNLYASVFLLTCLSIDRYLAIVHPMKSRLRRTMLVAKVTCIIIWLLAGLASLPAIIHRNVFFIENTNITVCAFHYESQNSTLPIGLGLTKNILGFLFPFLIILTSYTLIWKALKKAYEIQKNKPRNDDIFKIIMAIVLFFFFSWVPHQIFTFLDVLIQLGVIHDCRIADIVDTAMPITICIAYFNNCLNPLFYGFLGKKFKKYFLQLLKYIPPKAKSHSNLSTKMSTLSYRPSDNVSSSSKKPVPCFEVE
Experimental: The compounds of the invention were tested for antagonist activity in rabbit aortic rings. Male New Zealand white rabbits (2-2.5 kg) were sacrificed using an overdose of pentobarbital and exsanguinated via the carotid arteries. The thoracic aorta was removed, cleaned of adherent fat and connective tissue and then cut into 3-mm ring segments. The endothelium was removed from the rings by gently sliding a rolled-up piece of filter paper into the vessel lumen. The rings were then mounted in a water-jacketed tissue bath, maintained at 37° C., between moveable and fixed ends of a stainless steel wire with the moveable end attached to an FT03 Grass transducer coupled to a Model 7D Grass Polygraph for recording isometric force responses. […] The preparations were equilibrated for one hour before approximately one gram of passive tension was placed on the rings. Angiotensin II concentration-response curves were then recorded (3×10^-10 to 1×10^-5 M). Each concentration of AII was allowed to elicit its maximal contraction, and then AII was washed out repeatedly for 30 minutes before rechallenging with a higher concentration of AII. Aorta rings were exposed to the test antagonist at 10^-5 M for 5 minutes before challenging with AII. Adjacent segments of the same aorta ring were used for all concentration-response curves in the presence or absence of the test antagonist. […] The pA2 value is the concentration of the antagonist which increases the EC50 value for AII by a factor of two. Each test antagonist was evaluated in aorta rings from two rabbits.

[5] = read-out: pA2 (first of two values) (converted)
[6] = read-out: pA2 (second of two values) (converted)

With CNCC(=O)N[C@@H](CCCN=C(N)N)C(=O)N[C@H](C(=O)N[C@@H](Cc1ccc(O)cc1)C(=O)N[C@H](C(=O)N[C@@H](Cc1cnc[nH]1)C(=O)N1CCC[C@H]1C(=O)N[C@@H](C)C(=O)O)C(C)C)C(C)C [Saralasin] as the compound, how does the residual agonist activity ([1]; background statement) read?
The residual agonist activity was “significant residual agonist activity”.

For CCCCn1nc(C(OCC)OCC)nc1Cc1ccc(-c2ccccc2-c2nnn[nH]2)nc1 [Example 27, 5-[2-[5-[[1-butyl-3-diethoxymethyl-1H-1,2,4-triazol-5-yl]methyl]-2-pyridinyl]phenyl]-1H-tetrazole], which IC50 [2] is on record?
Its IC50 is 9.8 nM.

What about the Duration [3] of the same compound?
Its Duration is 150 min.

What about the inhibition in vivo at 3 mg/kg ([3]; conscious rats) of the same compound?
Its inhibition in vivo at 3 mg/kg is 10%.

And the Kb [4, 5]?
The Kb was 20.4 nM.

What about the Kb [4, 6] of the same compound?
The Kb was 28.2 nM.

With CCCCn1nc(C2OCC(C)(C)CO2)nc1Cc1ccc(-c2ccccc2-c2nnn[nH]2)nc1 [Example 32, 5-[2-[5-[[1-butyl-3-[2-(5,5-dimethyl-1,3-dioxanyl)]-1H-1,2,4-triazol-5-yl]methyl]-2-pyridinyl]phenyl]-1H-tetrazole] as the compound, how does the IC50 [2] read?
Its IC50 is 21 nM.

What about the Duration [3] of the same compound?
The Duration was 180 min.

And the inhibition in vivo at 3 mg/kg ([3]; conscious rats)?
Its inhibition in vivo at 3 mg/kg is 20%.

What about the Kb [4, 5] of the same compound?
Its Kb is 20 nM.

What about the Kb [4, 6] of the same compound?
The Kb was 75.9 nM.

For CCCCn1nc(C(=O)N(C)C(C)(C)C)nc1Cc1ccc(-c2ccccc2-c2nnn[nH]2)nc1 [Example 22, 5-[2-[5-[[1-butyl-3-(N-methyl-N-tertbutylamido)-1H-1,2,4-triazol-5-yl]methyl]-2-pyridinyl]phenyl]-1H-tetrazole], which IC50 [2] is on record?
Its IC50 is 28 nM.

What about the Duration [3] of the same compound?
Its Duration is 0 min.

And the inhibition in vivo at 3 mg/kg ([3]; conscious rats)?
Its inhibition in vivo at 3 mg/kg is 0%.

And the Kb [4, 5]?
Its Kb is 30.2 nM.

And the Kb [4, 6]?
The Kb was 77.6 nM.

Which IC50 [2] does the source give for CCCCn1nc(CCc2cccs2)nc1Cc1ccc(-c2ccccc2-c2nnn[nH]2)nc1 [Example 4, 5-[2-[5-[[1-butyl-3-[2-(2-thienyl)ethyl]-1H-1,2,4-triazol-5-yl]methyl]-2-pyridinyl]phenyl]-1H-tetrazole] here?
The IC50 was 13 nM.

What about the Duration [3] of the same compound?
Its Duration is > 180 min.

What about the inhibition in vivo at 3 mg/kg ([3]; conscious rats) of the same compound?
Its inhibition in vivo at 3 mg/kg is 25%.

What about the Kb [4, 5] of the same compound?
Its Kb is 5.01 nM.

What about the Kb [4, 6] of the same compound?
The Kb was 20.4 nM.

With CCCCn1nc(C2OCCCO2)nc1Cc1ccc(-c2ccccc2-c2nnn[nH]2)nc1 [Example 31, 5-[2-[5-[[1-butyl-3-[2-(1,3-dioxanyl)]-1H-1,2,4-triazol-5-yl]methyl]-2-pyridinyl]phenyl]-1H-tetrazole] as the compound, how does the IC50 [2] read?
Its IC50 is 20 nM.

What about the Duration [3] of the same compound?
The Duration was 180 min.

What about the inhibition in vivo at 3 mg/kg ([3]; conscious rats) of the same compound?
The inhibition in vivo at 3 mg/kg was 25%.

And the Kb [4, 5]?
Its Kb is 27.5 nM.

What about the Kb [4, 6] of the same compound?
The Kb was 70.8 nM.

Which IC50 [2] does the source give for CCCCc1nc(Cc2ccc(-c3ccccc3-c3nnn[nH]3)nc2)n(CCCC)n1 [Example 1, 5-[2-[5-[(1,3-dibutyl-1H,1,2,4-triazol-5-yl)methyl]-2-pyridinyl]phenyl]-1H-tetrazole] here?
Its IC50 is 14 nM.

What about the Duration [3] of the same compound?
The Duration was > 180 min.

And the inhibition in vivo at 3 mg/kg ([3]; conscious rats)?
Its inhibition in vivo at 3 mg/kg is 25%.

And the Kb [4, 5]?
Its Kb is 9.33 nM.

And the Kb [4, 6]?
The Kb was 15.8 nM.

For CCCCn1nc(C(OC)OC)nc1Cc1ccc(-c2ccccc2-c2nnn[nH]2)nc1 [Example 26, 5-[2-[5-[[1-butyl-3-dimethoxymethyl-1H-1,2,4-triazol-5-yl]methyl]-2-pyridinyl]phenyl]-1H-tetrazole], which IC50 [2] is on record?
Its IC50 is 27 nM.

What about the Duration [3] of the same compound?
The Duration was 0 min.

And the inhibition in vivo at 3 mg/kg ([3]; conscious rats)?
Its inhibition in vivo at 3 mg/kg is 0%.

For CCCCc1nc(Cl)c(CC(=O)O)n1Cc1ccccc1[N+](=O)[O-] [2-butyl-4-choloro-1-(2-nitrobenzyl)imidazole-5-acetic acid], which “angiotensin II antagonist activity” value [1] is on record?
The value was “specific competitive angiotensin II antagonist activity”.

Which IC50 [2] does the source give for CCCCn1nc(C(F)(F)CCC)nc1Cc1ccc(-c2ccccc2-c2nnn[nH]2)nc1 [Example 21, 5-[2-[5-[[1-butyl-3-(1,1-difluorobutyl)-1H-1,2,4-triazol-5-yl]methyl]-2-pyridinyl]phenyl]-1H-tetrazole] here?
The IC50 was 26 nM.

And the Duration [3]?
The Duration was > 180 min.

What about the inhibition in vivo at 3 mg/kg ([3]; conscious rats) of the same compound?
Its inhibition in vivo at 3 mg/kg is 40%.

And the Kb [4, 5]?
Its Kb is 83.2 nM.

What about the Kb [4, 6] of the same compound?
Its Kb is 17 nM.

Which results are given for CCCCn1nc(C(O)CCC)nc1Cc1ccc(-c2ccccc2-c2nnn[nH]2)nc1 (stereo not shown) [Example 10, 5-[2-[5-[[1-butyl-3-(1-hydroxybutyl)-1H-1,2,4-triazol-5-yl]methyl]-2-pyridinyl]phenyl]-1H-tetrazole]?
IC50 [2]: 21 nM; Duration [3]: 150 min; inhibition in vivo at 3 mg/kg ([3]; conscious rats): 10%; Kb [4, 5]: 12 nM; Kb [4, 6]: 27.5 nM

For CCCCc1nc(Cl)c(CC(=O)O)n1Cc1ccccc1Cl [2-n-butyl-4-chloro-1-(2-chlorobenzyl)imidazole-5-acetic acid], which “angiotensin II antagonist activity” value [1] is on record?
The value was “specific competitive angiotensin II antagonist activity”.

Which results are given for “5-[2-[5-[(1-butyl-3-propyl-1H-1,2,4-triazol-5-yl)methyl]-2-pyridinyl]phenyl]-1H-tetrazole [Example 3]”?
IC50 [2]: 150 nM; Inhibition ([3]; conscious rats): 10%; Duration [3]: 140 min; pA2 (first of two values) [4]: 7.46; pA2 (second of two values) [4]: 7.23

What does the source list for CCCCn1nc(-c2ccccc2Cl)nc1Cc1ccc(-c2ccccc2-c2nnn[nH]2)nc1 [Example 9, 5-[2-[5-[[1-butyl-3-(2-chlorophenyl)-1H-1,2,4-triazol-5-yl]methyl]-2-pyridinyl]phenyl]-1H-tetrazole]?
IC50 [2]: 54 nM; Duration [3]: > 180 min; inhibition in vivo at 3 mg/kg ([3]; conscious rats): 30%; Kb [4, 5]: 5.89 nM; Kb [4, 6]: 7.24 nM

For CCCn1nc(C(F)(F)CCC)nc1Cc1ccc(-c2ccccc2-c2nnn[nH]2)nc1 [Example 20, 5-[2-[5-[[1-propyl-3-(1,1-difluorobutyl)-1H-1,2,4-triazol-5-yl]methyl]-2-pyridinyl]phenyl]-1H-tetrazole], which IC50 [2] is on record?
Its IC50 is 150 nM.

And the Duration [3]?
The Duration was 180 min.

What about the inhibition in vivo at 3 mg/kg ([3]; conscious rats) of the same compound?
The inhibition in vivo at 3 mg/kg was 15%.

And the Kb [4, 5]?
The Kb was 16.6 nM.

What about the Kb [4, 6] of the same compound?
Its Kb is 26.3 nM.

Source: patent US6090828A, “5-aryleheteroarylalkyl-1,3,5-trisubstituted-1,2,4-triazole compounds for treatment of circulatory disorders” (priority 1997, dated 2000)
